Data: patent publication US7754856B2, “Human sodium-dependent bile acid transporter proteins” (Takeda Pharmaceutical Company Limited, priority 2002, dated 2010)

Molecular target: T1, human TCH230 (Homo sapiens, UniProt Q3KNW5)
T1 construct: expressed in transfected cells
T1 sequence (Q3KNW5 1-377): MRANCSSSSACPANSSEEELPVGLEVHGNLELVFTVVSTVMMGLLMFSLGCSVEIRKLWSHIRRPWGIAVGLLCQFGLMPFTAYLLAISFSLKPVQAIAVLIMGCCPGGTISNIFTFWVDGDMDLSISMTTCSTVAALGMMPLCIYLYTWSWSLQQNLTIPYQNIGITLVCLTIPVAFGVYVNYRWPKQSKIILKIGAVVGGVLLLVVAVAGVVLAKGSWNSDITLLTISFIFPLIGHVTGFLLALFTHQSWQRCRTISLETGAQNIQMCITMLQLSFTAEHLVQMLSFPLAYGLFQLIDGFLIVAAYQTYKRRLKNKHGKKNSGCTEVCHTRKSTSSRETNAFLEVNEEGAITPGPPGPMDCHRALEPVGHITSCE
Assay: Incorporation of labeled steroid sulfates into human TCH230-expressing CHO cell strain
Type: cell-based
Settings: for incorporation into human TCH230 expressing CHO cells (radioactivity): CHO clone No. 19-6, in the presence of 140 mM NaCl (NaCl buffer vs NMDG buffer, vs Mock cells), 37° C., 1 hour, values only in FIG. 17/18; for substrate of the novel sodium-dependent bile acid transporter protein: summary statement in disclosure
Procedure: Incorporation of [6,7-^3H(N)]-estrone sulfate and [1,2,6,7-^3H(N)]-dehydroepiandrosterone sulfate (hereinafter also referred to as [1,2,6,7-^3H(N)]-DHEA-S) into the human TCH230 (SEQ ID NO:1)-expressing CHO cell strain clone No. 19-6 obtained in Example 19 was measured.
The human TCH230 (SEQ ID NO:1) expressing CHO cell strain clone No. 19-6 was inoculated at a density of 4×10^4 cells/well in a 96 well plate, and cultured at 37° C. for 24 hours in MEMα medium (Invitrogen, Inc.) containing 5 mM sodium butyrate. The medium was removed, and the cells were washed 3 times with 150 μL NMDG buffer (140 mM N-methyl-D(−)-glucamine, 5.4 mM KCl, 0.34 mM Na2HPO4, 0.44 mM KH2PO4, 1.26 mM CaCl2, 0.41 mM MgSO4, 0.49 mM MgCl2, 5.55 mM glucose, pH 7.4-7.6), and incubated in 150 μL NMDG buffer at 37° C. for 1 hour. The buffer was replaced with 90 μL NaCl buffer (140 mM NaCl, 5.4 mM KCl, 0.34 mM Na2HPO4, 0.44 mM KH2PO4, 1.26 mM CaCl2, 0.41 mM MgSO4, 0.49 mM MgCl2, 5.55 mM glucose, pH 7.4-7.6) or 90 μL NMDG buffer, followed by adding 10 μL of 2.5 μM estrone sulfate, ammonium salt, [6,7-^3H(N)]— or 1.37 μM dehydroepiandrosterone sulfate, sodium salt, [1,2,6,7-^3H(N)]— (all of which are available from Perkin-Elmer Life Science). The cells were incubated at 37° C. for 1 hour, and the buffer was removed, then washed 3 times with 200 μL PBS (Takara Bio) and lysed with 10 μL of 0.1N NaOH. 100 μL SuperMix scintillator (Perkin-Elmer Life Science) was added thereto and stirred, and the amount of [6,7-^3H(N)]-estrone sulfate or [1,2,6,7-^3H(N)]-DHEA-S incorporated into the cells was measured in terms of radioactivity. This measurement was carried out with 1450 MICROBETA PLUS LIQUID SCINTILLATION COUNTER (Perkin-Elmer Life Science). CHO dhfr− cells into which vector pcDNA3.1(+) had been introduced (also referred to hereinafter as Mock) was also subjected to the same procedure and measured for radioactivity.

| Substance | incorporation into human TCH230 expressing CHO cells (radioactivity) | substrate of the novel sodium-dependent bile acid transporter protein |
| --- | --- | --- |
| [1,2,6,7-^3H(N)]-dehydroepiandrosterone sulfate [[1,2,6,7-^3H(N)]-DHEA-S] | incorporate | substrate |
| [6,7-^3H(N)]-estrone sulfate | incorporate | substrate |
